We go through seven molecules from ChEMBL document CHEMBL6109054, “Development of novel GI-centric prostaglandin E2 receptor type 4 (EP4) agonist prodrugs as treatment for ulcerative colitis and other intestinal inflammatory diseases” (Bioorg Med Chem Lett, 2025).

Data set [1] can be described thus: Prodrug conversion in mouse gut assessed as 7(R)-(2-((R,E)-4,4-difluoro-3-hydroxy-4-phenyl)but-1-en-1-yl)-5-oxopyrrolidin-1-yl)heptanoic acid formation by measuring half-life at 100 uM. Type of data set: ADME, tissue-based.
Data set [2] can be described thus: Prodrug conversion in human plasma assessed as 7(R)-(2-((R,E)-4,4-difluoro-3-hydroxy-4-phenyl)but-1-en-1-yl)-5-oxopyrrolidin-1-yl)heptanoic acid release by measuring half-life. Type of data set: ADME, cell-free.
The subject of data set [3] is Mus musculus. The experiment in a line: Anti-inflammatory activity in rectal dosed DSS-induced mouse model assessed as reduction in inflammatory cell infiltration treated as prodrug for 8 days. The note with it: route rec, time 8.0 day. Type of data set: functional, organism-based.
Data set [4] is described as follows: Prodrug conversion in mouse colon assessed as 7(R)-(2-((R,E)-4,4-difluoro-3-hydroxy-4-phenyl)but-1-en-1-yl)-5-oxopyrrolidin-1-yl)heptanoic acid formation by measuring half-life. As to conditions: in vivo. Type of data set: ADME, tissue-based.
A short description of data set [5]: Prodrug conversion in mouse ileum assessed as 7(R)-(2-((R,E)-4,4-difluoro-3-hydroxy-4-phenyl)but-1-en-1-yl)-5-oxopyrrolidin-1-yl)heptanoic acid formation by measuring half-life. The format is ADME, tissue-based. As to conditions: in vivo.
Data set [6] relates to Mus musculus. The experiment in a line: Anti-inflammatory activity in rectal dosed DSS-induced colitis mouse model assessed as increase in colon length treated as prodrug for 8 days. Type of data set: functional, organism-based. The note with it: route rec, time 8.0 day.
Data set [7] is described as follows: Prodrug conversion in blood of DSS-induced colitis mouse model assessed as 7(R)-(2-((R,E)-4,4-difluoro-3-hydroxy-4-phenyl)but-1-en-1-yl)-5-oxopyrrolidin-1-yl)heptanoic acid formation administered as rectal dose and measured after 4 days by LC/MS/MS analysis. Type of data set: ADME, tissue-based. The note with it: other, 96 h, route rec, time 4 day.
Data set [8] is described as follows: Prodrug release in PBS buffer at pH 2 assessed as release of 7(R)-(2-((R,E)-4,4-difluoro-3-hydroxy-4-phenyl)but-1-en-1-yl)-5-oxopyrrolidin-1-yl)heptanoic acid by measuring half-life. Type of data set: ADME.
Data set [9] concerns Mus musculus. The experiment in a line: Anti-inflammatory activity in rectal dosed DSS-induced colitis mouse model assessed as change in disease activity index (DAI) treated as prodrug for 8 days. The format is functional, organism-based. As to conditions: route rec, time 8.0 day.
A short description of data set [10]: Toxicity in rectal dosed mouse assessed as body weight loss administered for 8 days. The format is organism-based. As to conditions: in vivo, other, 192 h, route rec, time 8 day.
Data set [11] is described as follows: Prodrug conversion in mouse blood assessed as 7(R)-(2-((R,E)-4,4-difluoro-3-hydroxy-4-phenyl)but-1-en-1-yl)-5-oxopyrrolidin-1-yl)heptanoic acid formation administered orally with 1 mg/kg equivalent dose of active drug and measured for 1 to 4 hrs by LC/MS/MS analysis. Type of data set: ADME, organism-based. As to conditions: in vivo, po, time 1-4 hrs.
Data set [12] deals with Mus musculus. As to the kind of experiment: Anti-inflammatory activity in rectal dosed DSS-induced mouse model assessed as reduction in epithelial cell damage treated as prodrug for 8 days. The note with it: route rec, time 8.0 day. The format is functional, organism-based.
A short description of data set [13]: Prodrug conversion in mouse blood assessed as concentration of 7(R)-(2-((R,E)-4,4-difluoro-3-hydroxy-4-phenyl)but-1-en-1-yl)-5-oxopyrrolidin-1-yl)heptanoic acid administered as rectal dose and measured after 1 hr. The note with it: other, route rec. Type of data set: ADME, tissue-based.
Data set [14] in a line: Prodrug conversion in mouse blood assessed as 7(R)-(2-((R,E)-4,4-difluoro-3-hydroxy-4-phenyl)but-1-en-1-yl)-5-oxopyrrolidin-1-yl)heptanoic acid formation administered orally with 1 mg/kg equivalent dose of active drug and measured after 0.5 hrs by LC/MS/MS analysis. The format is ADME, organism-based. The note with it: in vivo, po.
Data set [15] in a line: Stability of compound in PBS buffer at pH 7.2 at 200 ug/mL measured over 170 hrs. The format is physicochemical. The note with it: pH 7.2, 170 h, at 200 µg/mL.
Data set [16] is described as follows: Stability of compound in PBS buffer at pH 9 at 200 ug/mL measured over 170 hrs. Type of data set: physicochemical. As to conditions: pH 9, 170 h, at 200 µg/mL.
A short description of data set [17]: Prodrug conversion in blood of DSS-induced colitis mouse model assessed as 7(R)-(2-((R,E)-4,4-difluoro-3-hydroxy-4-phenyl)but-1-en-1-yl)-5-oxopyrrolidin-1-yl)heptanoic acid formation administered as rectal dose and measured after 7 days by LC/MS/MS analysis. The format is ADME, tissue-based. The note with it: other, 168 h, route rec, time 7 day.
A short description of data set [18]: Prodrug conversion in mouse serum assessed as 7(R)-(2-((R,E)-4,4-difluoro-3-hydroxy-4-phenyl)but-1-en-1-yl)-5-oxopyrrolidin-1-yl)heptanoic acid release by measuring half-life. Type of data set: ADME, cell-free.
Data set [19] in a line: Elimination half-life in rat. Type of data set: ADME. The note with it: in vivo, read-out: beta t1/2.
The nature of data set [20]: Drug uptake in mouse blood administered as rectal dose and measured after 1 hrs. The format is ADME, tissue-based. The note with it: route rec, read-out: Ct.

Active and inactive are the calls of the source. No cut-off for these calls is given here.

As for `CCCC(O[C@H](/C=C/[C@H]1CCC(=O)N1CCCCCCC(=O)OCC)C(F)(F)c1ccccc1)OP(=O)(O)O` (stereo partly specified), the t1/2 is below 0.083 h in data set [1] and 12.7 h in [2].

On to `O=C(O)CCCCCCN1C(=O)CC[C@@H]1/C=C/[C@@H](OCOP(=O)(O)O)C(F)(F)c1ccccc1`, for which the result in [3], in data set [6] and in data set [12] was Active. Further, the t1/2 in data set [1] is below 0.083 h; in data set [4], 0.333 h; in data set [5] it was 9 min; in data set [2], 1.5 h; in data set [8] it was ~ 300 hr; in data set [18], 3.3 h. Also, the Drug metabolism in [7] is 1.5 ng/mL; in data set [11] it was “metabolite_detected”; in [13], 5.4 ng/mL; in data set [14] it was “metabolite_detected”; in data set [17], 1.5 ng/mL. Moreover, the values for the Activity entry in data set [9] and in data set [10] were “Not active; Little Or No Change Observed” and “Non-toxic”, respectively. The Stability result in data set [15] and in data set [16] was “Stable” in each case.

For `O=C1CC[C@H](/C=C/[C@@H](O)C(F)(F)c2ccccc2)N1CCCCCCc1nnn[nH]1`, in [19], the half-life was above 24 h.

As for `O=C(O)CCCCCCN1C(=O)CC[C@@H]1/C=C/[C@@H](OC(OP(=O)(O)O)c1ccccc1)C(F)(F)c1ccccc1` (stereo partly specified), the Drug metabolism result in data set [11] is “metabolite_detected”; in data set [13] it was 2.6 ng/mL; in data set [14] it was “metabolite_detected”.

Take `CCOC(=O)CCCCCCN1C(=O)CC[C@@H]1/C=C/[C@@H](OC(OP(=O)(O)O)c1ccccc1)C(F)(F)c1ccccc1` (stereo partly specified): the t1/2 in data set [1] is 0.667 h; in data set [2] it was 45 h.

For the molecule `O=C(O)CCCCCCN1C(=O)CC[C@@H]1/C=C/[C@@H](O)C(F)(F)c1ccccc1`, the half-life in data set [19] was below 1 h. In addition, the Activity result in [10] is recorded as “Non-toxic”. In addition, the concentration at 1 h in [20] stood at 0.0358 µg/mL.

Regarding `CCOC(=O)CCCCCCN1C(=O)CC[C@@H]1/C=C/[C@@H](OC(C)OP(=O)(O)O)C(F)(F)c1ccccc1` (stereo partly specified), the t1/2 in [1] was below 0.083 h; in data set [2], 10.4 h.
